From patent US4159328A, “Tetrahydro-1,3,5-thiadiazin-4-one derivative” (Nihon Nohyaku Co., Ltd., priority 1977, dated 1979)

Tests used:
Type in all cases: in vivo
[1] = test system: larvae of house mosquito (Culex pipiens pallens Coquillett); experiment: Test Example 6: insecticidal activity to larvae of house mosquito; conditions: 120 h
Description: Insecticidal activity to larvae of house mosquito (Culex pipiens pallens Coquillett).
Test method: In a 200-ml beaker, was placed together with a feed 100 ml of a test composition diluted with deionized water to 10 ppm concentration. The test composition was infested with 20 first-instar larvae of house mosquito and the beaker was covered with a sheet of Japanese paper. The beaker was kept in a constant temperature cabinet at 25° C. Five days after the treatment, the dead-and-survival was inspected to calculate the mortality.

[2] = test system: larvae of green rice leafhopper (Nephotettix cincticeps Uhler); experiment: Test Example 5: activity against larvae of green rice leafhopper; conditions: 168 h, 400 ppm, second-instar larvae, 25° C., seven days after treatment, read-out: Mortality
Description: Activity against larvae of green rice leafhopper (Nephotettix cincticeps Uhler).
Testing method: Five rice seedlings of the 1.5 leaf age were dipped in a test composition of 400 ppm concentration for 30 seconds. After air-drying, the seedlings were placed in a glass tube containing 1 ml of water and infested with five second-instar larvae of green rice leafhopper. The glass tube was left standing in a constant temperature cabinet at 25° C. Seven days after the treatment, dead-and-survivalwas inspected to calculate the mortality (3-replication test).

[3] = test system: two-spotted spider mite (Tetranychus urticae Koch); experiment: Test Example 3: activity to two-spotted spider mite; conditions: 120 h, 1,000 ppm, 5 days after treatment
Excerpt: Activity to two-spotted spider mite (Tetranychus urticae Koch).
Testing method: Two-spotted spider mites were set free on the pot-planted soybean in a greenhouse. On the next day, a test composition of 1,000 ppm concentration was sprayed over the soybean by means of a spray gun. Two days or five days after the treatment, dead-and-survival was inspected to calculate the mortality.

[4] = test system: larvae of brown planthopper (Nilaparvata lugens Stahl); experiment: Test Example 1: insecticidal activity against larvae of brown planthopper; conditions: 120 h, third-instar larvae, 25° C., 5 days after treatment
Description: Insecticidal activity against larvae of brown planthopper (Nilaparvata lugens Stahl).
Testing method: Five rice seedlings of the 1.5 leaf age were dipped in a test composition of 400 ppm concentration for 30 seconds. After air-drying, the seedlings were placed in a glass tube containing 1 ml of water and infested with five third-instar larvae of brown planthopper. The glass tube was left standing in a constant temperature cabinet at 25° C. and 5 or 7 days after the treatment, dead-and-survival was observed. Mortality was calculated from the results of 3-replication test.

| SMILES | mortality at 10 ppm [1] | mortality at 400 ppm [2] | mortality at 1000 ppm [3] | mortality at 400 ppm [4] |
| --- | --- | --- | --- | --- |
| CCN=C1SCN(c2ccccc2)C(=O)N1CC [Compound 125] | 80% | – | – | – |
| CCC(C)N=C1SCN(c2ccccc2)C(=O)N1CC (stereo not shown) [Compound 130] | – | 100% | – | – |
| CN=C1SCN(c2ccc(Cl)cc2)C(=O)N1C [Compound 188, 2-Methylimino-3-methyl-5-(p-chlorophenyl)tetrahydro-1,3,5-thiadiazin-4-one] | 100% | 100% | 90% | 100% |
| CC(C)N=C1SCN(c2ccc(Cl)cc2)C(=O)N1C(C)C [Compound 194] | 80% | 100% | 100% | 100% |
| CC(C)N1C(=O)N(c2ccccc2Cl)CSC1=NC(C)(C)CC(C)(C)C [Compound 247] | 100% | – | 70% | 90% |
| CC(C)N=C1SCN(c2cccc(C(F)(F)F)c2)C(=O)N1C [Compound 259] | 100% | – | 100% | 60% |
| CC(C)N=C1SCN(c2cccc(C(F)(F)F)c2)C(=O)N1C(C)C [Compound 265, 2-Isopropylimino-3-isopropyl-5-(m-trifluoromethylphenyl)-tetrahydro-1,3,5-thiadiazin-4-one] | 100% | – | – | – |
| CCC(C)N=C1SCN(c2cccc(C(F)(F)F)c2)C(=O)N1C(C)C (stereo not shown) [Compound 269] | 100% | – | – | 80% |
| CC(C)N1C(=O)N(c2cccc(C(F)(F)F)c2)CSC1=NC(C)(C)C [Compound 270] | 100% | – | 70% | 60% |
| CCC(C)N1C(=O)N(c2cccc(C(F)(F)F)c2)CSC1=NC(C)(C)C (stereo not shown) [Compound 274] | 100% | – | 100% | 100% |
| CCN1C(=O)N(c2ccc(F)cc2)CSC1=NC(C)(C)C [Compound 280] | 90% | – | 80% | 100% |
| Cc1ccccc1N1CSC(=NC(C)C)N(C(C)C)C1=O [Compound 301, 2-Isopropylimino-3-isopropyl-5-(o-tolyl)-tetrahydro-1,3,5-thiadiazin-4-one] | 90% | – | 100% | 100% |
| Cc1ccccc1N1CSC(=NC2CCCCC2)N(C2CCCCC2)C1=O [Compound 307, 2-cyclohexylimino-3-cyclohexyl-5-(o-tolyl)-tetrahydro-1,3,5-thiadiazin-4-one] | 100% | – | 70% | 70% |
| Cc1ccccc1N1CSC(=NCc2ccccc2)N(Cc2ccccc2)C1=O [Compound 308] | 100% | – | 100% | 60% |
| CCN1C(=O)N(c2ccc(C)cc2)CSC1=NC(C)(C)C [Compound 312] | 100% | – | 100% | 100% |
| C=CCN1C(=O)N(c2ccc(C)cc2)CSC1=NC(C)C [Compound 315] | 100% | – | 100% | 100% |
| CCCN1C(=O)N(c2ccc(C)cc2)CSC1=NC(C)(C)C [Compound 317] | 100% | – | 100% | 100% |
| Cc1ccc(N2CSC(=NC(C)C)N(Cc3ccccc3)C2=O)cc1 [Compound 320] | 70% | – | 70% | 100% |
| Cc1ccc(N2CSC(=NCc3ccccc3)N(Cc3ccccc3)C2=O)cc1 [Compound 321, 2-Benzylimino-3-benzyl-5-(p-tolyl)-tetrahydro-1,3,5-thiadiazin-4-one] | 70% | – | 70% | 85% |
| CN=C1SCN(c2ccc(C)cc2C)C(=O)N1C [Compound 376] | – | – | 100% | 60% |
| Cc1ccc(N2CSC(=NC(C)C)N(C)C2=O)c(C)c1 [Compound 377, 2-Isopropylimino-3-methyl-5-(2,4-dimethyl-phenyl)-tetrahydro-1,3,5-thiadiazin-4-one] | – | – | 100% | 100% |
| Cc1ccc(N2CSC(=NC(C)C)N(C(C)C)C2=O)c(C)c1 [Compound 378, 2-isopropylimino-3-isopropyl-5-(2,4-dimethylphenyl)-tetrahydro-1,3,5-thiadiazin-4-one] | – | – | 100% | 100% |
| Cc1ccc(N2CSC(=NC(C)(C)C)N(C(C)C)C2=O)c(C)c1 [Compound 379, 2-t-butylimino-3-isopropyl-5-(2,4-dimethylphenyl)-tetrahydro-1,3,5-thiadiazin-4-one] | – | – | 100% | 100% |

| SMILES | mortality at 10 ppm [1] | mortality at 400 ppm [2] | mortality at 1000 ppm [3] | mortality at 400 ppm [4] |
| --- | --- | --- | --- | --- |
| CCC(C)N1C(=O)N(c2ccc(C)cc2C)CSC1=NC(C)(C)C (stereo not shown) [Compound 380] | – | – | 100% | 100% |
| CN=C1SCN(c2cccc(C)c2C)C(=O)N1C [Compound 381] | – | – | 70% | 60% |
| CCN1C(=O)N(c2cccc(C)c2C)CSC1=NC1CCCCC1 [Compound 382, 2-cyclohexylimino-3-ethyl-5-(2,3-dimethylphenyl)tetrahydro-1,3,5-thiadiazin-4-one] | – | – | 100% | 80% |
| Cc1cccc(N2CSC(=NC(C)C)N(C(C)C)C2=O)c1C [Compound 383] | – | – | 100% | 100% |
| Cc1cccc(N2CSC(=NC(C)(C)C)N(C(C)C)C2=O)c1C [Compound 384, 2-t-butylimino-3-isopropyl-5-(2,3-dimethylphenyl)-tetrahydro-1,3,5-thiadiazin-4-one] | – | – | 100% | 100% |
| CCC(C)N1C(=O)N(c2cccc(C)c2C)CSC1=NC(C)(C)C (stereo not shown) [Compound 385] | – | – | 100% | 100% |
| Cc1cc(Cl)ccc1N1CSC(=NC(C)(C)C)N(C(C)C)C1=O [Compound 387, 2-t-butylimino-3-isopropyl-5-(2-methyl-4-chlorophenyl)-tetrahydro-1,3,5-thiadiazin-4-one] | – | – | 100% | 100% |
| Cc1cccc(C)c1N1CSC(=NC(C)(C)C)N(C(C)C)C1=O [Compound 388, 2-t-butylimino-3-isopropyl-5-(2,6-dimethylphenyl)tetrahydro-1,3,5-thiadiazin-4-one] | – | – | 100% | 100% |
| CCN=C1SCN(c2c(C)cccc2C)C(=O)N1CC [Compound 390] | – | – | 80% | 60% |
| C=CCN=C1SCN(c2c(CC)cccc2CC)C(=O)N1CC=C [Compound 394] | – | – | 80% | 70% |
| CCC(C)N=C1SCN(c2ccc(Cl)cc2Cl)C(=O)N1C(C)CC (stereo not shown) [Compound 400] | – | – | 70% | 100% |
| CCC(C)N1C(=O)N(c2ccc(Cl)cc2Cl)CSC1=NC(C)(C)C (stereo not shown) [Compound 401] | – | – | 70% | 100% |
| CC(C)N=C1SCN(c2cccc(Cl)c2Cl)C(=O)N1C(C)C [Compound 402] | – | – | 100% | 80% |
| CC(C)N=C1SCN(c2cc(Cl)cc(Cl)c2)C(=O)N1C(C)C [Compound 406] | – | – | 60% | 80% |
| CC(C)N1C(=O)N(c2cc(Cl)cc(Cl)c2)CSC1=NC(C)(C)C [Compound 407] | – | – | 100% | 100% |
| CC(C)N1C(=O)N(c2cc(Cl)cc(Cl)c2)CSC1=NC(C)(C)CC(C)(C)C [Compound 409] | – | – | 100% | 60% |
| CC(C)N=C1SCN(c2ccc(Cl)c(Cl)c2)C(=O)N1C(C)C [Compound 415] | – | – | 100% | 100% |
| CC(C)N1C(=O)N(c2ccc(Cl)c(Cl)c2)CSC1=NC(C)(C)C [Compound 416, 2-t-Butylimino-3-isopropyl-5-(3,4-dichlorophenyl)-tetrahydro-1,3,5-thiadiazin-4-one] | – | – | 100% | 100% |
| C=CCN1C(=O)N(c2ccc(Cl)c(Cl)c2)CSC1=NC(C)C [Compound 421] | – | – | 70% | 60% |
| CC(C)N1C(=O)N(c2ccc(Cl)c(Cl)c2)CSC1=NC1CCCCC1 [Compound 425] | – | – | 100% | 60% |
| CCN1C(=O)N(c2cc(Cl)ccc2Cl)CSC1=NC(C)(C)C [Compound 426] | – | – | 100% | 70% |
| CC(C)N1C(=O)N(c2cc(Cl)ccc2Cl)CSC1=NC(C)(C)C [Compound 427] | – | – | 100% | 100% |
| CCC(C)N1C(=O)N(c2cc(Cl)ccc2Cl)CSC1=NC(C)(C)C (stereo not shown) [Compound 428] | – | – | 100% | 100% |
